Results reported in patent US20230250066A1, “HERBICIDAL CINNOLINE DERIVATIVES” (SYNGENTA CROP PROTECTION AG, priority 2020, published 2023).

Tests used:
Format in all cases: in vivo
[1] = test system: Ipomoea hederacea (IPOHE); assay: Pre-emergence herbicidal test; settings: 1000 g/ha, evaluated after 13 days
Zea mays (ZEAMX) [2] = assay: Pre-emergence herbicidal test; settings: 1000 g/ha, evaluated after 13 days
[3] = test system: Amaranthus retoflexus (AMARE); assay: Post-emergence herbicidal test; settings: 1000 g/ha unless otherwise stated, evaluated after 13 days
Protocol: (§1) Seeds of a variety of test species are sown in standard soil in pots (Amaranthus retoflexus (AMARE), Solanum nigrum (SOLNI), Setaria faberi (SETFA), Lolium perenne (LOLPE), Echinochloa crus-galli (ECHCG), Ipomoea hederacea (IPOHE), Abutilon theophrasti (ABUTH), Zea mays (ZEAMX)). After 8 days cultivation under controlled conditions in a glasshouse (at 24° C./16° C., day/night; 14 hours light; 65% humidity), the plants are sprayed with an aqueous spray solution derived from the formulation of the technical active ingredient in acetone/water (50:50) solution containing 0.5% Tween 20 (polyoxyethelyene sorbitan monolaurate, CAS RN 9005-64-5). Compounds are applied at 1000 g/ha unless otherwise stated. The test plants are then grown in a glasshouse under controlled conditions in a glasshouse (at 24° C./16° C., day/night; 14 hours light; 65% humidity) and watered twice daily. After 13 days the test is evaluated for the percentage damage caused to the plant. The biological activities are shown in the following table on a five-point scale (5=81-100%; 4=61-80%; 3=41-60%; 2=21-40%; 1=10-20%; 0=0%;−=not tested).

[4] = test system: Echinochloa crus-galli (ECHCG); assay: Post-emergence herbicidal test; settings: 1000 g/ha unless otherwise stated, evaluated after 13 days
Protocol: as §1

[5] = test system: Ipomoea hederacea (IPOHE); assay: Post-emergence herbicidal test; settings: 1000 g/ha unless otherwise stated, evaluated after 13 days
Protocol: as §1

Setaria faberi (SETFA) [6] = assay: Post-emergence herbicidal test; settings: 1000 g/ha unless otherwise stated, evaluated after 13 days
Protocol: as §1

Zea mays (ZEAMX) [7] = assay: Post-emergence herbicidal test; settings: 1000 g/ha unless otherwise stated, evaluated after 13 days
Protocol: as §1

[8] = test system: Abutilon theophrasti (ABUTH); assay: Post-emergence herbicidal test; settings: 1000 g/ha unless otherwise stated, evaluated after 13 days
Protocol: as §1

Setaria faberi (SETFA) [9] = assay: Pre-emergence herbicidal test; settings: 1000 g/ha, evaluated after 13 days
[10] = test system: Echinochloa crus-galli (ECHCG); assay: Pre-emergence herbicidal test; settings: 1000 g/ha, evaluated after 13 days
[11] = test system: Abutilon theophrasti (ABUTH); assay: Pre-emergence herbicidal test; settings: 1000 g/ha, evaluated after 13 days
[12] = test system: Amaranthus retoflexus (AMARE); assay: Pre-emergence herbicidal test; settings: 1000 g/ha, evaluated after 13 days

SMILES | percentage damage caused to the plant, five-point scale, IPOHE [1] | percentage damage caused to the plant, five-point scale, ZEAMX (Zea mays (ZEAMX) [2]) | percentage damage caused to the plant, AMARE (five-point scale) [3] | percentage damage caused to the plant, ECHCG (five-point scale) [4] | percentage damage caused to the plant, IPOHE (five-point scale) [5] | percentage damage caused to the plant, SETFA (five-point scale) (Setaria faberi (SETFA) [6]) | percentage damage caused to the plant, ZEAMX (five-point scale) (Zea mays (ZEAMX) [7]) | percentage damage caused to the plant, ABUTH (five-point scale) [8] | percentage damage caused to the plant, five-point scale, SETFA (Setaria faberi (SETFA) [9]) | percentage damage caused to the plant, five-point scale, ECHCG [10] | percentage damage caused to the plant, five-point scale, ABUTH [11] | percentage damage caused to the plant, five-point scale, AMARE [12]
Cc1ccc2c(c1S(C)(=O)=O)c(=O)c(C(=O)O)nn2-c1ccc(OC(F)(F)F)cc1 [Compound P6, 6-methyl-5-methylsulfonyl-4-oxo-1-[4-(trifluoromethoxy)phenyl]cinnoline-3-carboxylic acid] | 1 (1=10-20%) | 1 (1=10-20%) | 2 (2=21-40%) | 4 (4=61-80%) | 1 (1=10-20%) | 3 (3=41-60%) | 1 (1=10-20%) | 1 (1=10-20%) | 4 (4=61-80%) | 3 (3=41-60%) | 2 (2=21-40%) | 1 (1=10-20%)
Cc1cc(S(C)(=O)=O)c2c(=O)c(C(=O)O)nn(-c3ccc(OC(F)(F)F)cc3)c2c1 [Compound P7, 7-methyl-5-methylsulfonyl-4-oxo-1-[4-(trifluoromethoxy)phenyl]cinnoline-3-carboxylic acid] | 1 (1=10-20%) | 1 (1=10-20%) | 1 (1=10-20%) | 4 (4=61-80%) | 2 (2=21-40%) | 4 (4=61-80%) | 2 (2=21-40%) | 1 (1=10-20%) | 4 (4=61-80%) | 4 (4=61-80%) | 1 (1=10-20%) | 1 (1=10-20%)
CCOC(=O)c1nn(-c2ccc(OC(F)(F)F)cc2)c2ccc(C)c(S(C)(=O)=O)c2c1=O [Compound P8, ethyl 6-methyl-5-methylsulfonyl-4-oxo-1-[4-(trifluoromethoxy)phenyl]cinnoline-3-carboxylic acid] | 1 (1=10-20%) | 1 (1=10-20%) | 1 (1=10-20%) | 4 (4=61-80%) | 1 (1=10-20%) | 4 (4=61-80%) | 1 (1=10-20%) | 1 (1=10-20%) | 4 (4=61-80%) | 3 (3=41-60%) | 1 (1=10-20%) | 1 (1=10-20%)
CCOC(=O)c1nn(-c2ccc(OC(F)(F)F)cc2)c2cc(C)cc(S(C)(=O)=O)c2c1=O [Compound P9, ethyl 7-methyl-5-methylsulfonyl-4-oxo-1-[4-(trifluoromethoxy)phenyl]cinnoline-3-carboxylate] | 1 (1=10-20%) | 1 (1=10-20%) | 1 (1=10-20%) | 4 (4=61-80%) | 1 (1=10-20%) | 3 (3=41-60%) | 1 (1=10-20%) | 1 (1=10-20%) | 4 (4=61-80%) | 4 (4=61-80%) | 1 (1=10-20%) | 1 (1=10-20%)
CCOC(=O)c1nn(-c2ccc(OC(F)(F)F)cc2)c2ccc(Br)c(S(C)(=O)=O)c2c1=O [Compound P10, ethyl 6-bromo-5-methysulfonyl-4-oxo-1-[4-(trifluoromethoxy)phenyl]cinnoline-3-carboxylate] | 0 (0=0%) | 0 (0=0%) | 1 (1=10-20%) | 1 (1=10-20%) | 0 (0=0%) | 1 (1=10-20%) | 1 (1=10-20%) | 1 (1=10-20%) | 1 (1=10-20%) | 0 (0=0%) | 1 (1=10-20%) | 1 (1=10-20%)
CCOC(=O)c1nn(-c2ccc(OC(F)(F)F)cc2)c2cc(Br)cc(S(C)(=O)=O)c2c1=O [Compound P11, ethyl 7-bromo-5-methylsulfonyl-4-oxo-1-[4-(trifluoromethoxy)phenyl]cinnoline-3-carboxylate] | 0 (0=0%) | 0 (0=0%) | 0 (0=0%) | 0 (0=0%) | 0 (0=0%) | 1 (1=10-20%) | 1 (1=10-20%) | 1 (1=10-20%) | 0 (0=0%) | 0 (0=0%) | 0 (0=0%) | 0 (0=0%)
CS(=O)(=O)c1c(Br)ccc2c1c(=O)c(C(=O)O)nn2-c1ccc(OC(F)(F)F)cc1 [Compound P12, 6-bromo-5-methylsulfonyl-4-oxo-1-[4-(trifluoromethoxy)phenyl]cinnoline-3-carboxylic acid] | 0 (0=0%) | 0 (0=0%) | 1 (1=10-20%) | 3 (3=41-60%) | 0 (0=0%) | 3 (3=41-60%) | 1 (1=10-20%) | 1 (1=10-20%) | 4 (4=61-80%) | 1 (1=10-20%) | 1 (1=10-20%) | 0 (0=0%)
CS(=O)(=O)c1cc(Br)cc2c1c(=O)c(C(=O)O)nn2-c1ccc(OC(F)(F)F)cc1 [Compound P13, 7-bromo-5-methylsulfonyl-4-oxo-1-[4-(trifluoromethoxy)phenyl]cinnoline-3-carboxylic acid] | 0 (0=0%) | 0 (0=0%) | 1 (1=10-20%) | 1 (1=10-20%) | 0 (0=0%) | 1 (1=10-20%) | 1 (1=10-20%) | 0 (0=0%) | 0 (0=0%) | 0 (0=0%) | 1 (1=10-20%) | 0 (0=0%)
CCOC(=O)c1nn(-c2ccc(OC(F)(F)F)cc2)c2ccc(Br)c(SC)c2c1=O [Compound P53, ethyl 6-bromo-5-methylsulfanyl-4-oxo-1-[4-(trifluoromethoxy)phenyl]cinnoline-3-carboxylate] | 0 (0=0%) |  | 0 (0=0%) | 1 (1=10-20%) | 1 (1=10-20%) | 0 (0=0%) | 0 (0=0%) | 1 (1=10-20%) | 1 (1=10-20%) | 1 (1=10-20%) | 1 (1=10-20%) | 1 (1=10-20%)
